Assay results from PubChem BioAssay AID248 (DTP/NCI, 2004).
Values joined by “and” are separate entries in the source; they are usually repeats but may differ in a detail not shown here. Equal entries are not always repeated. Toxic doses and inconclusive results are not listed.

System: L1210 leukemia ip in BDF1 mice, survival T/C
Assay: NCI In Vivo Anticancer Drug Screen. Data for tumor model L1210 Leukemia (intraperitoneal) in B6D2F1 (BDF1) mice
Settings: endpoint: mean survival time, higher = longer survival
Procedure, shortened: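 Each compound was tested against a transplantable tumor grown in mice. The endpoint was survival, with treated animals benchmarked against vehicle controls as a simple ratio.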

[1] = dose: 100.0 mg/kg/injection, schedule: Q04DX003 (ip), vehicle: Klucel (hydroxypropylcellulose) (HPC)
[2] = dose: 200.0 mg/kg/injection, schedule: Q04DX003 (ip), vehicle: Klucel (hydroxypropylcellulose) (HPC)
[3] = dose: 400.0 mg/kg/injection, schedule: Q04DX003 (ip), vehicle: Klucel (hydroxypropylcellulose) (HPC)
[4] = dose: 100.0 mg/kg/injection, schedule: Q04DX002 (ip), vehicle: saline
[5] = dose: 25.0 mg/kg/injection, schedule: Q01DX009 (ip), vehicle: saline with Tween-80
[6] = dose: 50.0 mg/kg/injection, schedule: Q01DX009 (ip), vehicle: saline with Tween-80
[7] = dose: 100.0 mg/kg/injection, schedule: Q01DX009 (ip), vehicle: saline with Tween-80
[8] = dose: 200.0 mg/kg/injection, schedule: Q01DX009 (ip), vehicle: saline with Tween-80
[9] = dose: 400.0 mg/kg/injection, schedule: Q01DX009 (ip), vehicle: saline with Tween-80

## OCCN=Cc1ccccc1O.OCCN=Cc1ccccc1O.[Ni]
dose: 75.0 mg/kg/injection, schedule: Q01DX001 (ip), vehicle: other
  T/C: 103 % of control
dose: 150.0 mg/kg/injection, schedule: Q01DX001 (ip), vehicle: other
  T/C: 106 % of control

## O=C1c2ccccc2C(=O)c2c(O)c(Cc3ccccn3)cc(O)c21
dose: 100.0 mg/kg/injection, schedule: Q04DX003 (ip), vehicle: saline sonified
  T/C: 89 % of control
dose: 200.0 mg/kg/injection, schedule: Q04DX003 (ip), vehicle: saline sonified
  T/C: 89 % of control
dose: 400.0 mg/kg/injection, schedule: Q04DX003 (ip), vehicle: saline sonified
  T/C: 94 % of control

## CCCCn1cc(COCC)c(=O)[nH]c1=O
dose: 50.0 mg/kg/injection, schedule: Q04DX002 (ip), vehicle: Klucel (hydroxypropylcellulose) (HPC)
  T/C: 98 % of control
dose: 100.0 mg/kg/injection, schedule: Q04DX002 (ip), vehicle: Klucel (hydroxypropylcellulose) (HPC)
  T/C: 102 % of control
dose: 200.0 mg/kg/injection, schedule: Q04DX002 (ip), vehicle: Klucel (hydroxypropylcellulose) (HPC)
  T/C: 98 % of control

## CCCCP(=S)(CCCC)C1CCCC1
[1]
  T/C: 104 % of control
[2]
  T/C: 107 % of control
[3]
  T/C: 101 % of control

## CC1(C)NC(C(=O)O)C(C)(C)S1 (stereo unspecified)
dose: 100.0 mg/kg/injection, schedule: Q01DX001 (ip), vehicle: saline
  T/C: 100 % of control
dose: 200.0 mg/kg/injection, schedule: Q01DX001 (ip), vehicle: saline
  T/C: 89 % of control
dose: 400.0 mg/kg/injection, schedule: Q01DX001 (ip), vehicle: saline
  T/C: 95 % of control

## CCCCC#CC(=O)OC(C)CC (stereo unspecified)
[4]
  T/C: 104 % of control
dose: 200.0 mg/kg/injection, schedule: Q04DX002 (ip), vehicle: saline
  T/C: 92 % of control
dose: 400.0 mg/kg/injection, schedule: Q04DX002 (ip), vehicle: saline
  T/C: 101 % of control

## Nc1nc(=O)c2[nH]cnc2n1O
dose: 12.5 mg/kg/injection, schedule: Q01DX009 (ip), vehicle: saline with Tween-80
  T/C: 96 % of control
dose: 16.5 mg/kg/injection, schedule: Q01DX009 (ip), vehicle: saline
  T/C: 112 % of control
[5]
  T/C: 215 % of control
dose: 25.0 mg/kg/injection, schedule: Q01DX009 (ip), vehicle: saline
  T/C: 100 % of control
[6]
  T/C: 88 % of control
dose: 55.0 mg/kg/injection, schedule: Q01DX009 (ip), vehicle: saline
  T/C: 110 % of control

## CC(=O)N(C)c1ccccc1
[4]
  T/C: 99 % of control

## Cc1ccccc1NC(=S)N(C)C
dose: 25.0 mg/kg/injection, schedule: Q01DX009 (ip), vehicle: Klucel (hydroxypropylcellulose) (HPC)
  T/C: 103 % of control
dose: 25.0 mg/kg/injection, schedule: Q04DX003 (ip), vehicle: Klucel (hydroxypropylcellulose) (HPC)
  T/C: 98 % of control
dose: 50.0 mg/kg/injection, schedule: Q01DX009 (ip), vehicle: Klucel (hydroxypropylcellulose) (HPC)
  T/C: 104 % of control
dose: 50.0 mg/kg/injection, schedule: Q04DX003 (ip), vehicle: Klucel (hydroxypropylcellulose) (HPC)
  T/C: 91 % of control
dose: 100.0 mg/kg/injection, schedule: Q01DX009 (ip), vehicle: Klucel (hydroxypropylcellulose) (HPC)
  T/C: 103 % of control
[1]
  T/C: 95 % of control and 103 % of control

## CCOC(=O)N/N=C/c1ccccc1O
dose: 75.0 mg/kg/injection, schedule: Q01DX001 (ip), vehicle: carboxymethylcellulose (CMC)
  T/C: 103 % of control
dose: 150.0 mg/kg/injection, schedule: Q01DX001 (ip), vehicle: carboxymethylcellulose (CMC)
  T/C: 104 % of control
dose: 300.0 mg/kg/injection, schedule: Q01DX001 (ip), vehicle: carboxymethylcellulose (CMC)
  T/C: 97 % of control

## O=C1c2c(c(O)c3ccccc3c2O)C(=O)C2CC=CCC12 (stereo unspecified)
[5]
  T/C: 105 % of control
[6]
  T/C: 110 % of control
[7]
  T/C: 104 % of control
[8]
  T/C: 104 % of control
[9]
  T/C: 104 % of control

## C=CCNc1ncnc2c1cnn2C
dose: 50.0 mg/kg/injection, schedule: Q01DX009 (ip), vehicle: saline
  T/C: 118 % of control
dose: 100.0 mg/kg/injection, schedule: Q01DX009 (ip), vehicle: saline
  T/C: 103 % of control

## CC[n+]1cccc(NC(=O)c2ccc(NC(=O)c3ccc(C(=O)Nc4ccc5c(ccc[n+]5CC)c4)cc3)cc2)c1
dose: 0.12 mg/kg/injection, schedule: Q01DX015 (oral), vehicle: alkali diluted with saline
  T/C: 90 % of control
dose: 0.25 mg/kg/injection, schedule: Q01DX015 (oral), vehicle: alkali diluted with saline
  T/C: 90 % of control
dose: 0.5 mg/kg/injection, schedule: Q01DX015 (oral), vehicle: alkali diluted with saline
  T/C: 101 % of control
dose: 0.55 mg/kg/injection, schedule: Q01DX Z (ip), vehicle: carboxymethylcellulose (CMC)
  T/C: 107 % of control
dose: 1.0 mg/kg/injection, schedule: Q01DX015 (oral), vehicle: alkali diluted with saline
  T/C: 112 % of control
dose: 2.2 mg/kg/injection, schedule: Q01DX Z (ip), vehicle: carboxymethylcellulose (CMC)
  T/C: 181 % of control
dose: 3.0 mg/kg/injection, schedule: Q01DX015 (ip), vehicle: alkali diluted with saline
  T/C: 164 % of control
dose: 4.4 mg/kg/injection, schedule: Q01DX Z (ip), vehicle: carboxymethylcellulose (CMC)
  T/C: 165 % of control
dose: 6.0 mg/kg/injection, schedule: Q01DX015 (ip), vehicle: alkali diluted with saline
  T/C: 120 % of control
dose: 10.0 mg/kg/injection, schedule: Q01DX Z (ip), vehicle: carboxymethylcellulose (CMC)
  T/C: 113 % of control
dose: 11.0 mg/kg/injection, schedule: Q01DX001 (ip), vehicle: alkali diluted with saline
  T/C: 118 % of control
dose: 15.0 mg/kg/injection, schedule: Q01DX Z (ip), vehicle: carboxymethylcellulose (CMC)
  T/C: 110 % of control
dose: 16.0 mg/kg/injection, schedule: Q01DX001 (ip), vehicle: alkali diluted with saline
  T/C: 150 % of control
dose: 25.0 mg/kg/injection, schedule: Q01DX015 (ip), vehicle: alkali diluted with saline
  T/C: 102 % of control

## CCCC(CCN1CCCC1)(CNC(=O)CN(CC)CC)c1cccc2ccccc12 (stereo unspecified)
dose: 25.0 mg/kg/injection, schedule: Q04DX003 (ip), vehicle: saline
  T/C: 103 % of control
dose: 50.0 mg/kg/injection, schedule: Q04DX003 (ip), vehicle: saline
  T/C: 104 % of control
dose: 100.0 mg/kg/injection, schedule: Q04DX003 (ip), vehicle: saline
  T/C: 106 % of control

## CCCP(CCC)c1ccccc1
dose: 100.0 mg/kg/injection, schedule: Q01DX009 (sc), vehicle: olive oil, sesame oil, peanut oil
  T/C: 96 % of control
dose: 100.0 mg/kg/injection, schedule: Q04DX003 (sc), vehicle: olive oil, sesame oil, peanut oil
  T/C: 93 % of control
dose: 200.0 mg/kg/injection, schedule: Q01DX009 (sc), vehicle: olive oil, sesame oil, peanut oil
  T/C: 113 % of control
dose: 200.0 mg/kg/injection, schedule: Q04DX003 (sc), vehicle: olive oil, sesame oil, peanut oil
  T/C: 95 % of control
dose: 400.0 mg/kg/injection, schedule: Q01DX009 (sc), vehicle: olive oil, sesame oil, peanut oil
  T/C: 100 % of control
dose: 400.0 mg/kg/injection, schedule: Q04DX003 (sc), vehicle: olive oil, sesame oil, peanut oil
  T/C: 91 % of control

## COC(=O)C1CC2c3ccccc3C1c1ccccc12 (stereo unspecified)
[7]
  T/C: 110 % of control
[1]
  T/C: 108 % of control
dose: 176.0 mg/kg/injection, schedule: Q01DX001 (ip), vehicle: carboxymethylcellulose (CMC)
  T/C: 96 % of control and 92 % of control
[8]
  T/C: 89 % of control
[2]
  T/C: 97 % of control
dose: 264.0 mg/kg/injection, schedule: Q01DX001 (ip), vehicle: carboxymethylcellulose (CMC)
  T/C: 93 % of control
dose: 400.0 mg/kg/injection, schedule: Q01DX001 (ip), vehicle: carboxymethylcellulose (CMC)
  T/C: 95 % of control
[9]
  T/C: 95 % of control
[3]
  T/C: 93 % of control
dose: 600.0 mg/kg/injection, schedule: Q01DX001 (ip), vehicle: carboxymethylcellulose (CMC)
  T/C: 98 % of control

## CC(=O)NCC(=O)O
dose: 100.0 mg/kg/injection, schedule: Q01DX001 (ip), vehicle: Klucel (hydroxypropylcellulose) (HPC)
  T/C: 113 % of control
dose: 200.0 mg/kg/injection, schedule: Q01DX001 (ip), vehicle: Klucel (hydroxypropylcellulose) (HPC)
  T/C: 95 % of control
dose: 300.0 mg/kg/injection, schedule: Q01DX001 (ip), vehicle: Klucel (hydroxypropylcellulose) (HPC)
  T/C: 94 % of control
